This note sets out measurements from patent publication US20220024921A1, “1,3,4-OXADIAZOLONE COMPOUND AND PHARMACEUTICAL” (NIPPON SHINYAKU CO., LTD., priority 2018, published 2022).

The experiment addresses T1, PIM1 serine/threonine kinase (Homo sapiens, UniProt P11309).
T1 construct: purchased Carna Bioscience, Inc
In words: PIM1 serine/threonine kinase inhibitory effect. Type of experiment: biochemical. To be noted: PIM1 serine/threonine kinase activity; ATP 40 μM; 30° C., 30 minutes. The procedure:
Each test substance was prepared to 10 mM with dimethylsulfoxide (DMSO), and further diluted with DMSO so as to have concentrations of 1000, 300, 100, 30, 10, 3, 1, 0.3, 0.1, 0.03, 0.01, and 0.001 μM. Moreover, each dilution was further diluted 33.3-fold with an assay buffer to prepare a test substance solution. The composition of the assay buffer was 50 mM HEPES (pH 7.0), 0.02% NaN3, 0.01% Bovine Serum Albumin, 0.1 mM Orthovanadate, 1 mM Dithiothreitol, and 5 mM MgCl2.
5 μL of each test substance solution was added to 384-well plates (n=2), and then 2.5 μL of a substrate solution (substrate 3-biotin (Cisbio Bioassays SAS), final concentration in the reaction solution: 0.5 μM) and 2.5 μL of an ATP solution (in the cases of PIM1, 2, 3, the final concentrations in the reaction solutions were 40, 2, and 10 μM, respectively) were added, 5 μL of each of PIM1, 2, 3 serine/threonine kinase solutions (Carna Bioscience, Inc., the final concentrations in the reaction solutions were 0.15, 1.6, and 0.25 μg/ml, respectively) was finally added, and the mixture was reacted at 30° C. for 30 minutes. The test substance concentrations in the reaction solutions are 10000, 3000, 1000, 300, 100, 30, 10, 3, 1, 0.3, 0.1, and 0.01 nM.
Thereafter, 15 μL of each detection solution (62.5 nM Streptavidin-XL665 (Cisbio Bioassays SAS), […] STK antibody-Cryptate (Cisbio Bioassays SAS), 50 mM HEPES (pH 7.0), 0.8 M KF, 0.1% Bovine Serum Albumin, 20 mM ethylenediaminetetraacetic acid) was added to each well. After stirring, the mixture was reacted at 30° C. for 1 hour. Absorbance (OD620, OD665) at 620 and 665 nm was measured with a microplate reader (SpectraMax M5e, Molecular Devices, LLC).
Non-linear regression analysis was performed by an SAS system (SAS Institute Inc.) using the ratio (OD665/OD620) of the measured absorbance to calculate a test substance concentration (IC50) that inhibits PIM1 serine/threonine kinase activity by 50%.

Counter-ions that a name gives are not always drawn.

T1 sequence (P11309 whole entry): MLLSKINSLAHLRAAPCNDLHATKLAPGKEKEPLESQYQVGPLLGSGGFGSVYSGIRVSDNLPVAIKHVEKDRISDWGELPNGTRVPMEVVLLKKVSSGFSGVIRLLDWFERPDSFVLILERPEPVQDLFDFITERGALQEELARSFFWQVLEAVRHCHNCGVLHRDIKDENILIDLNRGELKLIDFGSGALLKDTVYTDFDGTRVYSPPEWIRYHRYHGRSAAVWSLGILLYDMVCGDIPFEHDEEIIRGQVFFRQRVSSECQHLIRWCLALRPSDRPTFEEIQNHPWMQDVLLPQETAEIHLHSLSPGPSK

As a reminder, the IC50 is the concentration that gives 50% inhibition. Read a high IC50 as weaker potency. Compound `O=c1[nH]nc(-c2ccc(C(F)(F)F)c(N[C@@H](C3CCNCC3)C(F)(F)F)c2)o1` [Example 147, 5-[4-(trifluoromethyl)-3-{[(1S)-2,2,2-trifluoro-1-(piperidin-4-yl)ethyl]amino}phenyl]-1,3,4-oxadiazol-2(3H)-one hydrochloride] gave an IC50 of 23 nM.
Then `Cc1c(-c2n[nH]c(=O)o2)cc(Cl)c(Cl)c1N[C@@H](C)C1CCNCC1` [Example 93, 5-(4,5-dichloro-2-methyl-3-{[(1S)-1-(piperidin-4-yl)ethyl]amino}phenyl)-1,3,4-oxadiazol-2(3H)-one hydrochloride], with 36 nM.
Turning to `CN(Cc1cc(-c2n[nH]c(=O)o2)ccc1Cl)C1CCNCC1` [Example 205, 5-(4-chloro-3-{[methyl(piperidin-4-yl)amino]methyl}phenyl)-1,3,4-oxadiazol-2(3H)-one dihydrochloride], half-maximal inhibition (IC50) required 290 nM.
Then `NC1CCN(c2cc(-c3n[nH]c(=O)o3)ccc2C(F)(F)F)CC1` [Example 9, 5-[3-(4-aminopiperidin-1-yl)-4-(trifluoromethyl)phenyl]-1,3,4-oxadiazol-2(3H)-one hydrochloride], with 45 nM.
Then `CC(C[C@H]1CCNC1)Nc1cc(-c2n[nH]c(=O)o2)ccc1C(F)(F)F` (stereo partly drawn) [Example 136, 5-[3-({1-[(3R)-pyrrolidin-3-yl]propan-2-yl}amino)-4-(trifluoromethyl)phenyl]-1,3,4-oxadiazol-2(3H)-one hydrochloride], with 16 nM; and `N[C@H]1CC[C@H](CNc2cccc(-c3n[nH]c(=O)o3)c2)CC1` [Example 62, 5-[3-({[(1r,4r)-4-aminocyclohexyl]methyl}amino)phenyl]-1,3,4-oxadiazol-2(3H)-one hydrochloride], with 140 nM.
Then `CC(C[C@@H]1CCNC1)Nc1cc(-c2n[nH]c(=O)o2)ccc1C(F)(F)F` (stereo partly drawn) [Example 134, 5-[3-({1-[(3S)-pyrrolidin-3-yl]propan-2-yl}amino)-4-(trifluoromethyl)phenyl]-1,3,4-oxadiazol-2(3H)-one hydrochloride], with 14 nM.
`NC(=O)[C@H]1CC[C@H](CNc2cc(-c3n[nH]c(=O)o3)ccc2C(F)(F)F)CC1` [Example 121, (1r,4r)-4-{[5-(5-oxo-4,5-dihydro-1,3,4-oxadiazol-2-yl)-2-(trifluoromethyl)anilino]methyl}cyclohexane-1-carboxamide] displayed a concentration for half-maximal inhibition (IC50) of 120 nM.
As for `NCCCNc1cc(-c2n[nH]c(=O)o2)ccc1C(F)(F)F` [Example 2, 5-{3-[(3-aminopropyl)amino]-4-(trifluoromethyl)phenyl}-1,3,4-oxadiazol-2(3H)-one], the figure is 27 nM.
Compound `C[C@H](Nc1cc(-c2n[nH]c(=O)o2)cc(C2CC2)c1Cl)C1CCNCC1` [Example 102, 5-(4-chloro-3-cyclopropyl-5-{[(1S)-1-(piperidin-4-yl)ethyl]amino}phenyl)-1,3,4-oxadiazol-2(3H)-one] gave a half-maximal inhibitory concentration (IC50) of 36 nM.
For the compound `CC(C)(C)OC(=O)N1CCN(c2cc(-c3n[nH]c(=O)o3)ccc2Cl)CC1` [Example 7, tert-butyl 4-[2-chloro-5-(5-oxo-4,5-dihydro-1,3,4-oxadiazol-2-yl)phenyl]piperazine-1-carboxylate], the IC50 was 4100 nM.
As for `NCc1ccc(Nc2cc(-c3n[nH]c(=O)o3)ccc2C(F)(F)F)cc1` [Example 41, 5-{3-[4-(aminomethyl)anilino]-4-(trifluoromethyl)phenyl}-1,3,4-oxadiazol-2(3H)-one hydrochloride], the figure is 40 nM; as for `O=c1[nH]nc(-c2ccc(C(F)(F)F)c(NC[C@H]3CC[C@H](CO)CC3)c2)o1` [Example 120, 5-[3-({[(1r,4r)-4-(hydroxymethyl)cyclohexyl]methyl}amino)-4-(trifluoromethyl)phenyl]-1,3,4-oxadiazol-2(3H)-one], 590 nM; as for `NCc1cccc(-c2cc(-c3n[nH]c(=O)o3)ccc2C(F)(F)F)c1` [Example 21, 5-[3′-(aminomethyl)-6-(trifluoromethyl)[1,1′-biphenyl]-3-yl]-1,3,4-oxadiazol-2(3H)-one hydrochloride], 160 nM.
